ChEMBL document CHEMBL3804830, “Efficient synthesis of new antiproliferative steroidal hybrids using the molecular hybridization approach” (Eur J Med Chem, 2016)

How the values were obtained:
SH-SY5Y [1] = test: Cell cycle arrest in human SH-SY5Y assessed as accumulation at G0/G1 phase at 1.25 uM after 24 hrs by propidium iodide staining based flow cytometry (reference value: 61.80%); assay type: functional
SH-SY5Y [2] = test: Cell cycle arrest in human SH-SY5Y assessed as accumulation at S phase at 1.25 uM after 24 hrs by propidium iodide staining based flow cytometry (reference value: 21.34%); assay type: functional
SH-SY5Y [3] = test: Induction of apoptosis in human SH-SY5Y cells assessed as late apoptotic cells at 1.25 uM after 24 hrs by Annexin V-FITC/propidium iodide staining based flow cytometry (reference value: 5.7%); assay type: functional
SH-SY5Y [4] = test: Cell cycle arrest in human SH-SY5Y assessed as accumulation at G2/M phase at 5 uM after 24 hrs by propidium iodide staining based flow cytometry (reference value: 14.53%); assay type: functional
SH-SY5Y [5] = test: Cell cycle arrest in human SH-SY5Y assessed as accumulation at G0/G1 phase at 2.5 uM after 24 hrs by propidium iodide staining based flow cytometry (reference value: 61.80%); assay type: functional
SH-SY5Y [6] = test: Induction of apoptosis in human SH-SY5Y cells assessed as early apoptotic cells at 20 uM after 24 hrs by Annexin V-FITC/propidium iodide staining based flow cytometry (reference value: 3.3%); assay type: functional
SH-SY5Y [7] = test: Cell cycle arrest in human SH-SY5Y assessed as accumulation at S phase at 5 uM after 24 hrs by propidium iodide staining based flow cytometry (reference value: 21.34%); assay type: functional
SH-SY5Y [8] = test: Induction of apoptosis in human SH-SY5Y cells assessed as early apoptotic cells at 2.5 uM after 24 hrs by Annexin V-FITC/propidium iodide staining based flow cytometry (reference value: 3.3%); assay type: functional
SH-SY5Y [9] = test: Induction of apoptosis in human SH-SY5Y cells assessed as viable cells at 20 uM after 24 hrs by Annexin V-FITC/propidium iodide staining based flow cytometry (reference value: 88.2%); assay type: functional; conditions: read-out: Activity
SH-SY5Y [10] = test: Induction of apoptosis in human SH-SY5Y cells assessed as reduction in mitochondrial membrane potential after 24 hrs by JC-1 staining based flow cytometry; assay type: functional, cell-based
SH-SY5Y [11] = test: Induction of apoptosis in human SH-SY5Y cells assessed as necrotic cells at 5 uM after 24 hrs by Annexin V-FITC/propidium iodide staining based flow cytometry (reference value: 2.9%); assay type: functional
SH-SY5Y [12] = test: Cell cycle arrest in human SH-SY5Y assessed as accumulation at G2/M phase at 2.5 uM after 24 hrs by propidium iodide staining based flow cytometry (reference value: 14.53%); assay type: functional
SH-SY5Y [13] = test: Antiproliferative activity against human SH-SY5Y cells assessed as cell growth inhibition after 72 hrs by MTT assay; assay type: functional, cell-based
[14] = Antiproliferative activity against human MGC803 cells assessed as cell growth inhibition after 72 hrs by MTT assay; assay type: functional, cell-based; conditions: MGC-803, 72 h
SH-SY5Y [15] = test: Induction of apoptosis in human SH-SY5Y cells assessed as late apoptotic cells at 2.5 uM after 24 hrs by Annexin V-FITC/propidium iodide staining based flow cytometry (reference value: 5.7%); assay type: functional
SH-SY5Y [16] = test: Induction of apoptosis in human SH-SY5Y cells assessed as necrotic cells at 10 uM after 24 hrs by Annexin V-FITC/propidium iodide staining based flow cytometry (reference value: 2.9%); assay type: functional
SH-SY5Y [17] = test: Induction of apoptosis in human SH-SY5Y cells assessed as early apoptotic cells at 1.25 uM after 24 hrs by Annexin V-FITC/propidium iodide staining based flow cytometry (reference value: 3.3%); assay type: functional
MCF7 = test: cells; conditions: Homo sapiens, MCF7, 72 h
Description: Antiproliferative activity against human MCF7 cells assessed as cell growth inhibition after 72 hrs by MTT assay

SH-SY5Y [18] = test: Cell cycle arrest in human SH-SY5Y assessed as accumulation at G2/M phase at 1.25 uM after 24 hrs by propidium iodide staining based flow cytometry (reference value: 14.53%); assay type: functional
SH-SY5Y [19] = test: Cell cycle arrest in human SH-SY5Y assessed as accumulation at G0/G1 phase at 5 uM after 24 hrs by propidium iodide staining based flow cytometry (reference value: 61.80%); assay type: functional
SH-SY5Y [20] = test: Induction of apoptosis in human SH-SY5Y cells assessed as reduction in mitochondrial membrane potential at 2.5 uM after 24 hrs by JC-1 staining based flow cytometry (reference value: 5.1%); assay type: functional; parameters: scale not given: the % may be the effect or the level left
SH-SY5Y [21] = test: Induction of apoptosis in human SH-SY5Y cells assessed as late apoptotic cells at 20 uM after 24 hrs by Annexin V-FITC/propidium iodide staining based flow cytometry (reference value: 5.7%); assay type: functional
SH-SY5Y [22] = test: Induction of apoptosis in human SH-SY5Y cells assessed as viable cells at 1.25 uM after 24 hrs by Annexin V-FITC/propidium iodide staining based flow cytometry (reference value: 88.2%); assay type: functional; conditions: read-out: Activity
SH-SY5Y [23] = test: Induction of apoptosis in human SH-SY5Y cells assessed as necrotic cells at 20 uM after 24 hrs by Annexin V-FITC/propidium iodide staining based flow cytometry (reference value: 2.9%); assay type: functional
SH-SY5Y [24] = test: Induction of apoptosis in human SH-SY5Y cells assessed as viable cells at 10 uM after 24 hrs by Annexin V-FITC/propidium iodide staining based flow cytometry (reference value: 88.2%); assay type: functional; conditions: read-out: Activity
SH-SY5Y [25] = test: Induction of apoptosis in human SH-SY5Y cells assessed as viable cells at 5 uM after 24 hrs by Annexin V-FITC/propidium iodide staining based flow cytometry (reference value: 88.2%); assay type: functional; conditions: read-out: Activity
[26] = Antiproliferative activity against human EC109 cells assessed as cell growth inhibition after 72 hrs by MTT assay; assay type: functional, cell-based; conditions: ECa-109, 72 h
SH-SY5Y [27] = test: Induction of apoptosis in human SH-SY5Y cells assessed as reduction in mitochondrial membrane potential at 10 uM after 24 hrs by JC-1 staining based flow cytometry (reference value: 5.1%); assay type: functional; parameters: scale not given: the % may be the effect or the level left
SH-SY5Y [28] = test: Induction of apoptosis in human SH-SY5Y cells assessed as late apoptotic cells at 10 uM after 24 hrs by Annexin V-FITC/propidium iodide staining based flow cytometry (reference value: 5.7%); assay type: functional
SH-SY5Y [29] = test: Induction of apoptosis in human SH-SY5Y cells assessed as early apoptotic cells at 5 uM after 24 hrs by Annexin V-FITC/propidium iodide staining based flow cytometry (reference value: 3.3%); assay type: functional
SH-SY5Y [30] = test: Cell cycle arrest in human SH-SY5Y assessed as accumulation at S phase at 2.5 uM after 24 hrs by propidium iodide staining based flow cytometry (reference value: 21.34%); assay type: functional
SH-SY5Y [31] = test: Induction of apoptosis in human SH-SY5Y cells assessed as viable cells at 2.5 uM after 24 hrs by Annexin V-FITC/propidium iodide staining based flow cytometry (reference value: 88.2%); assay type: functional; conditions: read-out: Activity
[32] = Antiproliferative activity against human U87 cells assessed as cell growth inhibition after 72 hrs by MTT assay; assay type: functional, cell-based, U-87MG ATCC; conditions: U-87 MG
SH-SY5Y [33] = test: Induction of apoptosis in human SH-SY5Y cells assessed as necrotic cells at 1.25 uM after 24 hrs by Annexin V-FITC/propidium iodide staining based flow cytometry (reference value: 2.9%); assay type: functional
SH-SY5Y [34] = test: Cell cycle arrest in human SH-SY5Y assessed as accumulation at G2/M phase after 24 hrs by propidium iodide staining based flow cytometry; assay type: functional
SH-SY5Y [35] = test: Induction of apoptosis in human SH-SY5Y cells assessed as necrotic cells at 2.5 uM after 24 hrs by Annexin V-FITC/propidium iodide staining based flow cytometry (reference value: 2.9%); assay type: functional
SH-SY5Y [36] = test: Induction of apoptosis in human SH-SY5Y cells after 24 hrs by Annexin V-FITC/propidium iodide staining based flow cytometry; assay type: functional, cell-based
SH-SY5Y [37] = test: Induction of apoptosis in human SH-SY5Y cells assessed as reduction in mitochondrial membrane potential at 5 uM after 24 hrs by JC-1 staining based flow cytometry (reference value: 5.1%); assay type: functional; parameters: scale not given: the % may be the effect or the level left
SH-SY5Y [38] = test: Induction of apoptosis in human SH-SY5Y cells assessed as early apoptotic cells at 10 uM after 24 hrs by Annexin V-FITC/propidium iodide staining based flow cytometry (reference value: 3.3%); assay type: functional
[39] = molecular target: Lysine-specific histone demethylase 1A (Homo sapiens, UniProt O60341); test: Inhibition of recombinant LSD1 (157 to 852 amino acids) (unknown origin) expressed in Escherichia coli BL21(DE) using H3K4me2 substrate
SH-SY5Y [40] = test: Induction of apoptosis in human SH-SY5Y cells assessed as late apoptotic cells at 5 uM after 24 hrs by Annexin V-FITC/propidium iodide staining based flow cytometry (reference value: 5.7%); assay type: functional

C[C@]12CC[C@H](OC(=O)Cn3cc(CN4C(=O)C(=O)c5c(Cl)ccc(Cl)c54)nn3)CC1=CC[C@@H]1[C@@H]2CC[C@]2(C)C(=O)CC[C@@H]12
Activity (SH-SY5Y [1]): 50.31%
Activity (SH-SY5Y [2]): 24.78%
Activity (SH-SY5Y [3]): 8.4%
Activity (SH-SY5Y [4]): 27.74%
Activity (SH-SY5Y [5]): 45.36%
Activity (SH-SY5Y [6]): 32.6%
Activity (SH-SY5Y [7]): 12.48%
Activity (SH-SY5Y [8]): 10.6%
viability at 20 µM (SH-SY5Y [9]): 1%
Activity (SH-SY5Y [10]): Dose-dependent effect
Activity (SH-SY5Y [11]): 7.4%
Activity (SH-SY5Y [12]): 23.88%
IC50 (SH-SY5Y [13]): 4.06 µM
IC50 [14]: 5.95 µM
Activity (SH-SY5Y [15]): 6.4%
Activity (SH-SY5Y [16]): 0.5%
Activity (SH-SY5Y [17]): 6.1%
IC50 (MCF7): 32.2 µM
Activity (SH-SY5Y [18]): 21.31%
Activity (SH-SY5Y [19]): 52.33%
Activity (SH-SY5Y [20]): 9%
Activity (SH-SY5Y [21]): 65.7%
viability at 1.25 µM (SH-SY5Y [22]): 80.3%
Activity (SH-SY5Y [23]): 0.8%
viability at 10 µM (SH-SY5Y [24]): 0.8%
viability at 5 µM (SH-SY5Y [25]): 32.4%
IC50 [26]: 20.8 µM
Activity (SH-SY5Y [27]): 40.1%
Activity (SH-SY5Y [28]): 59.7%
Activity (SH-SY5Y [29]): 18.9%
Activity (SH-SY5Y [30]): 23.48%
viability at 2.5 µM (SH-SY5Y [31]): 81.4%
IC50 [32]: 9.57 µM
Activity (SH-SY5Y [33]): 5.3%
Activity (SH-SY5Y [34]): Dose-dependent effect
Activity (SH-SY5Y [35]): 1.6%
Activity (SH-SY5Y [36]): Dose-dependent effect
Activity (SH-SY5Y [37]): 29.8%
Activity (SH-SY5Y [38]): 39%
IC50 [39]: 3.18 µM
Activity (SH-SY5Y [40]): 41.4%
